Measured values as given in PubChem BioAssay (NCI).
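Exposure lasted 48 hours, with cells grown in 96-well plates and compounds tested at five concentrations. GI50 marks 50% less growth. At the TGI there is no net growth.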

Columns and labels:
Assay in all cases: inhibition of tumour cell growth, NCI panel, 48 h
A549 NSCLC = system: A549 NSCLC
HCT-15 colon = system: HCT-15 colon
K-562 leukemia = system: K-562 leukemia
KM12 colon = system: KM12 colon
M14 melanoma = system: M14 melanoma
MOLT-4 leukemia = system: MOLT-4 leukemia
NCI/ADR-RES ovarian = system: NCI/ADR-RES ovarian
SW-620 colon = system: SW-620 colon
UACC-257 melanoma = system: UACC-257 melanoma
SR leukemia = system: SR leukemia

Row | SMILES | TGI (A549 NSCLC) [µM] | TGI (HCT-15 colon) [µM] | TGI (K-562 leukemia) [µM] | TGI (KM12 colon) [µM] | TGI (M14 melanoma) [µM] | TGI (MOLT-4 leukemia) [µM] | TGI (NCI/ADR-RES ovarian) [µM] | TGI (SW-620 colon) [µM] | TGI (UACC-257 melanoma) [µM] | GI50 (A549 NSCLC) [µM] | GI50 (HCT-15 colon) [µM] | GI50 (K-562 leukemia) [µM] | GI50 (M14 melanoma) [µM] | GI50 (SW-620 colon) [µM] | GI50 (UACC-257 melanoma) [µM] | TGI (SR leukemia) [µM] | GI50 (KM12 colon) [µM] | GI50 (MOLT-4 leukemia) [µM] | GI50 (NCI/ADR-RES ovarian) [µM] | GI50 (SR leukemia) [µM]
1 | CCCCCC/C=C\CCCCCCCCCc1cccc(OC)c1O | > 100 | > 100 | > 100 | > 100 | > 100 | > 100 | > 100 | > 100 | > 100 | – | – | – | – | – | – | – | – | – | – | –
2 | CC(C)(C)CC(C)(C)c1cc2c(O)c(c1)Cc1cc(C(C)(C)CC(C)(C)C)cc(c1O)Cc1cc(C(C)(C)CC(C)(C)C)cc(c1O)Cc1cc(C(C)(C)CC(C)(C)C)cc(c1O)Cc1cc(C(C)(C)CC(C)(C)C)cc(c1O)Cc1cc(C(C)(C)CC(C)(C)C)cc(c1O)Cc1cc(C(C)(C)CC(C)(C)C)cc(c1O)Cc1cc(C(C)(C)CC(C)(C)C)cc(c1O)C2 | > 100 | > 100 | > 100 | > 100 | > 100 | > 100 | – | > 100 | > 100 | – | – | – | – | – | – | – | – | – | – | –
3 | CC(C)CCCC(C)[C@H]1CCC2C3CC=C4C[C@@H](OC(=O)CC(CC(=O)[O-])C(=O)[O-])CC[C@]4(C)C3CC[C@@]21C.N.N.[Pt+4] (stereo not given in full) | > 100 | > 100 | > 100 | – | > 100 | – | – | > 100 | > 100 | > 100 | > 100 | > 100 | > 100 | > 100 | > 100 | – | – | – | – | –
4 | O=C(O)c1ccccc1C(=O)Nc1cc2c(cc1Br)-c1ccccc1C2=O | > 100 | > 100 | > 100 | > 100 | > 100 | > 100 | > 100 | > 100 | > 100 | – | – | – | – | – | – | – | – | – | – | –
5 | O=C(/C=C/c1ccco1)N1CCN(Cc2ccccc2)CC1 | > 100 | > 100 | – | > 100 | > 100 | > 100 | – | > 100 | > 100 | – | – | – | – | – | – | > 100 | – | – | – | –
6 | CCOc1ccc2c(c1)[n+]([O-])c(-c1ccc([N+](=O)[O-])cc1)c(N)[n+]2[O-] | > 100 | – | > 100 | > 100 | > 100 | > 100 | – | > 100 | > 100 | – | – | – | – | – | – | > 100 | – | – | – | –
7 | COc1ccccc1C(=O)Nc1ccc(Cl)c(C(=O)OC(C)C)c1 | > 100 | > 100 | > 100 | > 100 | > 93.3 | > 76.5 | 64.4 | > 100 | > 77.1 | – | – | – | – | – | – | – | – | – | – | –
8 | COc1cc2ccnc(-c3n[nH]c4cc(OC)c(OC)cc34)c2cc1OC | > 100 | > 100 | > 100 | > 100 | > 100 | > 100 | – | > 100 | > 100 | – | – | – | – | – | – | > 100 | – | – | – | –
9 | CC(C)(C)c1cc(C#N)c2c(c1)C(=O)OC2(c1ccccc1)c1ccccc1C#N (stereo not given) | > 100 | > 100 | > 100 | > 100 | > 100 | > 100 | – | > 100 | > 100 | – | – | – | – | – | – | > 100 | – | – | – | –
10 | O=C(Cc1ccccc1)N/N=C(/c1nc2ccc([N+](=O)[O-])cc2[nH]c1=O)C(O)c1ccco1 (stereo not given) | > 100 | > 100 | > 100 | > 100 | > 100 | > 100 | – | > 100 | > 100 | – | – | – | – | – | – | > 100 | – | – | – | –
11 | OCC(O)C(OC1OC(CO)C(O)C(O)C1O)c1nn(-c2ccc(Cl)cc2)c2nc3cc(Cl)c(Cl)cc3nc12 (stereo not given) | – | > 100 | > 100 | > 100 | > 100 | > 100 | – | – | > 100 | – | – | – | – | – | – | > 100 | – | – | – | –
12 | CC(C(=O)c1ccc(O)cc1)C1(O)C(=O)Nc2c(Cl)cc(Cl)cc21 (stereo not given) | > 100 | > 100 | 32.6 | > 100 | > 61.2 | > 100 | – | > 100 | 33.3 | – | – | – | – | – | – | – | – | – | – | –
13 | [N-]=[N+]=Nc1nnc(CCCCc2nnc(N=[N+]=[N-])o2)o1 | > 100 | > 100 | > 100 | > 100 | > 100 | > 100 | – | > 100 | > 100 | – | – | – | – | – | – | – | – | – | – | –
14 | CC/C(=N/O)C(C)C(=O)CCC(=O)Nc1ccc(Cl)cc1 (stereo not given) | > 100 | > 100 | > 100 | > 100 | > 100 | > 100 | – | > 100 | > 100 | – | – | – | – | – | – | – | – | – | – | –
15 | C=CCC(O)c1cc(OC)ccc1OC (stereo not given) | > 100 | > 100 | > 100 | > 100 | > 100 | – | – | > 100 | > 100 | – | – | – | – | – | – | – | – | – | – | –
16 | COC(=O)c1ccc(N/C=C(/C#N)c2ccsc2)cc1 | 40.3 | > 100 | > 100 | 32.2 | – | > 100 | – | 54.7 | > 100 | – | – | – | – | – | – | > 100 | – | – | – | –

Row | SMILES | TGI (A549 NSCLC) [µM] | TGI (HCT-15 colon) [µM] | TGI (K-562 leukemia) [µM] | TGI (KM12 colon) [µM] | TGI (M14 melanoma) [µM] | TGI (MOLT-4 leukemia) [µM] | TGI (NCI/ADR-RES ovarian) [µM] | TGI (SW-620 colon) [µM] | TGI (UACC-257 melanoma) [µM] | GI50 (A549 NSCLC) [µM] | GI50 (HCT-15 colon) [µM] | GI50 (K-562 leukemia) [µM] | GI50 (M14 melanoma) [µM] | GI50 (SW-620 colon) [µM] | GI50 (UACC-257 melanoma) [µM] | TGI (SR leukemia) [µM] | GI50 (KM12 colon) [µM] | GI50 (MOLT-4 leukemia) [µM] | GI50 (NCI/ADR-RES ovarian) [µM] | GI50 (SR leukemia) [µM]
17 | CNC(=O)NCCCCC(NC(=O)OCc1ccccc1)C(=O)OCc1ccccc1 (stereo not given) | > 100 | > 100 | > 100 | 71 | 31.3 | 40.9 | – | > 100 | 34.5 | – | – | – | – | – | – | 61.4 | – | – | – | –
18 | CC1=C(C(=O)NCc2ccccc2)C(c2ccc(N(C)C)cc2)C(C(=O)NCc2ccccc2)=C(C)N1 | > 100 | – | > 100 | > 100 | > 100 | > 100 | – | > 100 | > 100 | – | – | – | – | – | – | – | – | – | – | –
19 | NC(CCSCCF)C(=O)O (stereo not given) | > 100 | > 100 | > 100 | > 100 | > 100 | > 100 | – | > 100 | – | – | – | – | – | – | – | > 100 | – | – | – | –
20 | C=CC(=O)OCCCS(=O)(=O)[O-].C=CC(=O)OCCCS(=O)(=O)[O-].NC1CCCCC1N.[Pt+4] | > 25 | > 25 | > 25 | > 25 | > 25 | > 25 | – | > 25 | > 25 | > 25 | > 25 | > 25 | > 25 | > 25 | > 25 | – | > 25 | > 25 | – | –
21 | COc1ccc(C2C(C(=O)O)=C(CO)Oc3cc4c(cc32)OCO4)c(OC)c1 (stereo not given) | > 100 | > 100 | > 100 | – | > 100 | > 100 | – | > 100 | > 100 | – | – | – | – | – | – | – | – | – | – | –
22 | COc1ccccc1CNC(=O)/C=C/c1ccc(O)c(O)c1 | > 100 | 86.3 | > 100 | > 100 | > 100 | – | > 100 | > 100 | > 100 | 64.3 | 15.6 | 39.6 | 72.4 | > 100 | 84.6 | – | 59.4 | – | 66 | –
23 | O=C(CC(=O)c1cccc2ccccc12)C(=O)Nc1nccs1 | > 100 | > 100 | > 100 | > 100 | > 100 | > 100 | – | > 100 | > 100 | – | – | – | – | – | – | > 100 | – | – | – | –
24 | CCOC(=O)C1=C(Nc2cccc3ccccc23)OCC1=O | > 100 | – | > 100 | > 100 | > 100 | > 100 | – | > 100 | > 100 | – | – | – | – | – | – | > 100 | – | – | – | –
25 | C#CCOCn1cnc2c(N)ncnc21 | > 100 | – | > 100 | > 100 | > 100 | > 100 | – | > 100 | > 100 | – | – | – | – | – | – | > 100 | – | – | – | –
26 | O=c1c2cc(Br)ccc2n(C2OC(CO)C(O)C(O)C2O)c(=S)n1-c1ccccc1 (stereo not given) | > 100 | > 100 | > 100 | > 100 | – | > 100 | – | > 100 | > 100 | – | – | – | – | – | – | > 100 | – | – | – | –
27 | CC1=CC[C@@H]2C(=O)C=CC=C[C@H]12.[C-]#[O+].[C-]#[O+].[C-]#[O+].[Fe] | > 100 | > 100 | > 100 | > 100 | > 100 | > 100 | – | – | > 100 | > 100 | > 100 | > 100 | > 100 | – | > 100 | > 100 | > 100 | > 100 | – | > 100
28 | CCSc1nnc(-c2ccc3ccccc3c2O)n1-c1ccccc1 | – | > 100 | – | – | – | > 100 | – | – | > 100 | – | 2.72 | – | – | – | > 100 | – | – | > 100 | – | –
29 | Cc1c(-c2cc(-c3ccccc3)n[nH]c2=O)c2ccccc2n1C | > 100 | > 100 | > 100 | > 100 | > 100 | > 100 | – | > 100 | > 100 | – | – | – | – | – | – | > 100 | – | – | – | –
30 | CC(C)=CC1(C)/C(=N\O)C(C)(CC(C)C)C(=O)N1O (stereo not given) | > 100 | > 100 | > 100 | > 100 | > 100 | > 100 | – | > 100 | > 100 | – | – | – | – | – | – | > 100 | – | – | – | –
31 | CCCCCCCCCCCc1cc(=O)c2c(O)cccc2o1 | > 100 | > 100 | > 100 | > 100 | > 100 | > 100 | – | > 100 | > 100 | – | – | – | – | – | – | > 100 | – | – | – | –
32 | COc1ccccc1NC(=O)C1=C(C)NC(C)=C(C(=O)Nc2ccccc2OC)C1c1ccc(C2C(C(=O)Nc3ccccc3OC)=C(C)NC(C)=C2C(=O)Nc2ccccc2OC)cc1 | > 60.4 | 7.49 | 13.2 | 3.38 | 3.34 | 17.8 | – | 4.06 | 6.17 | – | – | – | – | – | – | 9.93 | – | – | – | –
